# Reference: patent publication US11059821B2, “1H-pyrrolo[2,3-c]pyridin-7(6H)-ones and pyrazolo[3,4-c]pyridin-7(6H)-ones as inhibitors of BET proteins” (Incyte Corporation, priority 2014, dated 2021)
# Tested on: KMS.12.BM cell line (human myeloma)
# Assay: KMS.12.BM cell viability assay
# Format: cell-based
# Settings: 72 h, 3 days, ATP quantitation (Cell Titer-GLO), concentration for 50% cell death
# Protocol: KMS.12.BM cell line (human myeloma) was purchased from JCRB (Osaka, Japan) and maintained in RPMI with 10% FBS culture medium. To measure the cytotoxic activity of the compounds through ATP quantitation, the KMS. 12.BM cells are plated in the RPMI culture medium at 5000 cells/well/per 100 μL into a 96-well polystyrene clear black tissue culture plate (Greiner-bio-one through VWR, NJ), in the presence or absence of a concentration range of test compounds. After 3 days, […] Cell Titer-GLO Luminescent (Promega, Madison, Wis.) cell culture agent is added to each well for 10 minutes at room temperature to stabilize the luminescent signal. This determines the number of viable cells in culture based on quantitation of the ATP present, which signals the presence of metabolically active cells. Luminescence is measured with the Top Count 384 (Packard Bioscience through Perkin Elmer, Boston, Mass.). Compound inhibition is determined relative to cells cultured with no drug and the IC50 is reported as the compound concentration required for 50% cell death.
row,Structure (SMILES),IC50
1,"Cn1cc(-c2cc(S(C)(=O)=O)cc3c2OC(c2ccccc2)C(=O)N3)c2cc[nH]c2c1=O (stereo not shown) [Example 46, 8-(6-methyl-7-oxo-6,7-dihydro-1H-pyrrolo[2,3-c]pyridin-4-yl)-6-(methylsulfonyl)-2-phenyl-2H-1,4-benzoxazin-3(4H)-one]",≤ 1 µM
2,"CC(=O)c1cc2c(c(-c3cn(C)c(=O)c4[nH]ccc34)c1)OC(C(C)C)C(=O)N2 (stereo not shown) [Example 49, 6-acetyl-2-isopropyl-8-(6-methyl-7-oxo-6,7-dihydro-1H-pyrrolo[2,3-c]pyridin-4-yl)-2H-1,4-benzoxazin-3(4H)-one]",≤ 1 µM
3,"CC(=O)c1cc2c(c(-c3cn(C)c(=O)c4[nH]ccc34)c1)OC(C)(C)C(=O)N2 [Example 80, 6-acetyl-2,2-dimethyl-8-(6-methyl-7-oxo-6,7-dihydro-1H-pyrrolo[2,3-c]pyridin-4-yl)-2H-1,4-benzoxazin-3(4H)-one]",≤ 1 µM
4,"CC(=O)c1cc(-c2cn(C)c(=O)c3[nH]ccc23)c2c(c1)N(C)C(=O)C(C)(C)O2 [Example 82, 6-acetyl-2,2,4-trimethyl-8-(6-methyl-7-oxo-6,7-dihydro-1H-pyrrolo[2,3-c]pyridin-4-yl)-2H-1,4-benzoxazin-3(4H)-one]",≤ 1 µM
